Measured values as given in ChEMBL document CHEMBL4406894, “Design, synthesis and biological evaluation of novel desloratadine derivatives with anti-inflammatory and H1 antagonize activities” (Bioorg Med Chem Lett, 2019).
Calls of active or inactive are those of the source. No cut-off for these calls is given here.

Legend:
Mus musculus [1] = test: Anti-inflammatory activity in DNFB-induced mouse ear edema model assessed as inhibition in ear swelling at 5 mg/kg relative to control; assay type: functional
Mus musculus [2] = organism: Mus musculus; settings: BALB/C, at 5 mg/kg
Mus musculus [3] = test: Immunosuppressive activity in BALB/C mouse assessed as inhibition in TNFalpha production by TNFalpha level at 5 mg/kg by ELISA; assay type: functional
[4] = Half life in mouse liver microsomes incubated for 6 hrs by LC/MS analysis; assay type: ADME, Microsome
[5] = Intrinsic clearance in Rat liver microsomes incubated for 6 hrs by LC/MS analysis; assay type: ADME, Microsome; settings: read-out: CLH
[6] = Half life in dog liver microsomes incubated for 6 hrs by LC/MS analysis; assay type: ADME, Canis lupus familiaris, Microsome
[7] = Half life in human liver microsomes incubated for 6 hrs by LC/MS analysis; assay type: ADME, Microsome
[8] = Oral bioavailability in Sprague-Dawley rat at 10 mg/kg; assay type: ADME, organism-based; settings: in vivo
[9] = Intrinsic clearance in mouse liver microsomes incubated for 6 hrs by LC/MS analysis; assay type: ADME, Microsome; settings: read-out: CLH
[10] = Intrinsic clearance in human liver microsomes incubated for 6 hrs by LC/MS analysis; assay type: ADME, Microsome; settings: read-out: CLH
[11] = Toxicity in Sprague-Dawley rat; settings: in vivo
[12] = Toxicity in ICR mouse; settings: in vivo
[13] = Half life in Sprague-Dawley rat at 2 mg/kg, iv; assay type: ADME, organism-based; settings: in vivo
[14] = Half life in ICR mouse at 2.5 mg/kg, iv; assay type: ADME, organism-based; settings: in vivo
[15] = Half life in rat liver microsomes incubated for 6 hrs by LC/MS analysis; assay type: ADME, Microsome
[16] = Half life in Sprague-Dawley rat at 10 mg/kg, po; assay type: ADME, organism-based; settings: in vivo
[17] = Clearance in Sprague-Dawley rat at 2 mg/kg, iv; assay type: ADME, organism-based; settings: in vivo
[18] = Intrinsic clearance in dog liver microsomes incubated for 6 hrs by LC/MS analysis; assay type: ADME, Canis lupus familiaris, Microsome; settings: read-out: CLH
[19] = Clearance in ICR mouse at 2.5 mg/kg, iv; assay type: ADME, organism-based; settings: in vivo
[20] = Intrinsic clearance in monkey liver microsomes incubated for 6 hrs by LC/MS analysis; assay type: ADME, Macaca mulatta, Microsome; settings: rhesus monkey, read-out: CLH
[21] = Half life in monkey liver microsomes incubated for 6 hrs by LC/MS analysis; assay type: ADME, Macaca mulatta, Microsome; settings: rhesus monkey

COc1cccc(OCC(O)CN2CCC(=C3c4ccc(Cl)cc4CCc4cccnc43)CC2)c1 (configuration not stated)
inhibition in vivo at 5 mg/kg (Mus musculus [1]): 43.1%
inhibition (Mus musculus [2]): Active

COc1ccccc1OC[C@@H](O)CN1CCC(=C2c3ccc(Cl)cc3CCc3cccnc32)CC1
Activity (Mus musculus [3]): 1.18 ng/mL

COc1ccccc1OCCCN1CCC(=C2c3ccc(Cl)cc3CCc3cccnc32)CC1
inhibition in vivo at 5 mg/kg (Mus musculus [1]): 59.5%
inhibition (Mus musculus [2]): Active

Cc1ccccc1OCC(O)CN1CCC(=C2c3ccc(Cl)cc3CCc3cccnc32)CC1 (configuration not stated)
inhibition in vivo at 5 mg/kg (Mus musculus [1]): 59.1%
inhibition (Mus musculus [2]): Active

OC(COc1ccccc1F)CN1CCC(=C2c3ccc(Cl)cc3CCc3cccnc32)CC1 (configuration not stated)
inhibition in vivo at 5 mg/kg (Mus musculus [1]): 26%
inhibition (Mus musculus [2]): Active

OC(COc1ccccc1)CN1CCC(=C2c3ccc(Cl)cc3CCc3cccnc32)CC1 (configuration not stated)
inhibition in vivo at 5 mg/kg (Mus musculus [1]): 59.1%
inhibition (Mus musculus [2]): Active

COc1ccccc1OC[C@H](O)CN1CCC(=C2c3ccc(Cl)cc3CCc3cccnc32)CC1
Activity (Mus musculus [3]): 1.21 ng/mL

COc1ccccc1OCC(O)CN1CCC(=C2c3ccc(Cl)cc3CCc3cccnc32)CC1 (racemic)
inhibition in vivo at 5 mg/kg (Mus musculus [1]): 59.2%
half-life [4]: 1.47 min
microsomal CLint [5]: 359 µL/min/mg
half-life [6]: 8.76 min
half-life [7]: 7.74 min
bioavailability [8]: 18%
microsomal CLint [9]: 945 µL/min/mg
microsomal CLint [10]: 179 µL/min/mg
MTD [11]: 750 mg/kg
Activity (Mus musculus [3]): 1.14 ng/mL
MTD [12]: 750 mg/kg
half-life [13]: 54 min
half-life [14]: 28.2 min
half-life [15]: 3.87 min
half-life [16]: 84 min
clearance [17]: 19.6 mL/min/kg
microsomal CLint [18]: 158 µL/min/mg
clearance [19]: 99.5 mL/min/kg

Clc1ccc2c(c1)CCc1cccnc1C2=C1CCNCC1 [DESLORATADINE]
LD50 [11]: 250 mg/kg
LD50 [12]: 250 mg/kg

Cc1ncc2n1-c1ccc(Cl)cc1C(c1ccccc1F)=NC2 [MIDAZOLAM]
half-life [4]: 8.06 min
microsomal CLint [5]: 808 µL/min/mg
half-life [6]: 2.81 min
half-life [7]: 12 min
microsomal CLint [9]: 430 µL/min/mg
microsomal CLint [10]: 289 µL/min/mg
microsomal CLint [20]: 927 µL/min/mg
half-life [15]: 4.29 min
half-life [21]: 3.74 min
microsomal CLint [18]: 1230 µL/min/mg
